Laboratory results from patent US11840532B2, “Modulators of THR-β and methods of use thereof” (ALIGOS THERAPEUTICS, INC., priority 2020, dated 2023).

Assays:
[1] = molecular target: T1, human thyroid receptor alpha ligand-binding domain (THRα) (Homo sapiens, UniProt P10827); assay: THR Biochemical Assay (Assay 1): TR-FRET thyroid receptor coactivator assay, alpha LBD; details: TR-FRET coactivator recruitment; for Emax: read-out: Activity category Assay 1 THRα (Emax); for EC50: agonist EC50, read-out: Activity category Assay 1 THRα (EC50)
T1 construct: purchased Invitrogen
T1 sequence (P10827 163-410 isoform P10827-2 limits assumed, other chains not shown): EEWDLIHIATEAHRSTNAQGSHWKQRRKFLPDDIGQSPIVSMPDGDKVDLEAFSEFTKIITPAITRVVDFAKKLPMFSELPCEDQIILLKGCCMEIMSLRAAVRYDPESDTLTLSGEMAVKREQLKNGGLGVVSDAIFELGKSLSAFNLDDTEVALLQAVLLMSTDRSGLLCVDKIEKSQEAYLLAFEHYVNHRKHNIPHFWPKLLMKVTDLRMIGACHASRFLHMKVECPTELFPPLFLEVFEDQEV
Text: (§1) THR Biochemical Assay (sAsay 1)
(§2) The TR-FRET thyroid receptor beta coactivator assay was used with slight, optimized modifications of the manufacturer's protocol (Invitrogen). The assay uses a terbium-labeled anti-GST antibody, a glutathione-S-transferase (GST) tagged human thyroid receptor, beta or alpha, ligand-binding domain (LBD), and a fluorescein labeled SRC2-2 coactivator peptide. The antibody interacts with the LBD, where the agonist also binds, resulting in increased affinity for the SRC2-2 coactivator peptide causing energy transfer of the acceptor fluorophore and a FRET emission shift from 495 to 520 nm. The energy transfer is detected as an increase in the fluorescence emission of the fluorescein acceptor, and a decrease in the fluorescence emission of the terbium donor. The assay is performed in a 384-well black plate in a final volume of 20 μL. Serial dilution of various test agonists was performed in DMSO (1% final DMSO concentration) and added to the test plate. Thyroid receptor beta LBD is added to the plate at a final concentration of 1 nM, followed by the mixture of the fluorescein labeled SRC2-2 coactivator peptide, and the terbium-labeled anti-GST antibody at final concentrations of 200 nM and 2 nM respectively. The assay is incubated for 1 h at rt protected from light. The TR-FRET is then measured on a Victor multilabel reader (Perkin Elmer) using an excitation wavelength of 340 nm with emission filters of 495 nm and 520 nm. The assay is quantified by expressing a ratio (520:495) of the intensities, and the resulting activation curves; EC50 values were generated using a sigmoidal dose response (variable slope) equation in GraphPad™ Prism 8.0.

Huh-7 cells = assay: Huh-7 Differential Gene Expression (Assay 2): CPT1A RT-qPCR; assay type: cell-based; details: Homo sapiens, CPT1A gene expression in Huh-7 cells, 24 hr treatment, TH-depleted DMEM; for EC50: read-out: Activity category Assay 2 EC50; for Emax: read-out: Activity category Assay 2 Emax
Description: Huh-7 Differential Gene Expression (Assay 2)
Fetal bovine serum (FBS) was incubated with washed resin (50 mg resin/mL FBS; resin weight is dry weight of resin prior to washing) for 5 hr at room temperature on a rotor. The FBS was separated from the resin via centrifugation and incubated with new, washed resin for 18h at room temperature on a rotor.
Cell Culture and Drug Treatment
Huh-7 cells were cultured in DMEM (10-013-CM, Corning) supplemented with 10% FBS and 1% Pen-Strep at 37° C. under 5% CO2. When 70-80% confluence was reached, the cells were removed by trypsinization. The medium was aspirated from the cell culture dish, the cell monolayer was washed with 1× PBS, and 0.05% trypsin, 0.53 mM EDTA (25-052-CV, Corning) solution was added to the dish. After 3 min incubation, the cells were detached completely by repeatedly pipetting solution onto the monolayer. Equal volume of DMEM supplemented with 10% rFBS and 1% Pen-Strep (TH-depleted DMEM) was added to the dish to inactivate the trypsin. The cell suspension was centrifuged at 350×g at room temperature for 3 min. The supernatant was aspirated out and the cell pellet was resuspended in TH-depleted DMEM. […] After 24 hr incubation, the media was replaced with treatment media. All compounds were serially diluted in DMSO and final concentrations were reached by dilution in TH-depleted DMEM (0.1% DMSO). The cells were incubated in treatment media for 24 hr. Treatments were performed in biological duplicates.
After 24 h in treatment media, the cells were lysed directly on the culture plates and cDNA was produced using the TaqMan™ Fast Advanced Cells-to-CT™ Kit (A35374, Invitrogen) and following the manufacturer's protocol. RT-qPCR for CPT1A (Hs00912671_m1) and two housekeeping genes, ACTB (Hs01060665_g1) and TFG (Hs02832013_g1), was performed using TaqMan™ Fast Advanced Master Mix. RT-qPCR reactions were run on the qTOWER^3 84 G (Analytik Jena) in technical duplicates.
ΔRn values were obtained from the qPCRsoft384 1.0 software and CPT1A gene expression was quantified via the 2ΔΔCt method. Dose-response curves were generated using GraphPad Prism 8 using four parameter logistic equation without top constraint to derive EC50 and Emax.

[2] = molecular target: T2, human thyroid receptor beta ligand-binding domain (THRβ) (Homo sapiens, UniProt P10828); assay: THR Biochemical Assay (Assay 1): TR-FRET thyroid receptor beta coactivator assay; details: TR-FRET coactivator recruitment, THRβ LBD; for Emax: read-out: Activity category Assay 1 THRβ (Emax); for EC50: agonist EC50, read-out: Activity category Assay 1 THRβ (EC50)
T2 construct: purchased Invitrogen
T2 sequence (P10828 217-461 limits assumed): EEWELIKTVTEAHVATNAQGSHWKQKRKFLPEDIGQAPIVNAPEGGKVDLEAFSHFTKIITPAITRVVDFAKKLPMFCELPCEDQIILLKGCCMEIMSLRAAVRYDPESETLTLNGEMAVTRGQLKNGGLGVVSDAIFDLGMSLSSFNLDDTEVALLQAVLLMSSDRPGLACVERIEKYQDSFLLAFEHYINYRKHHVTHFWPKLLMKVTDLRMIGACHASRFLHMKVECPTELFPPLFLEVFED
Text: as §1, §2

Cc1cc(OCC(=O)O)c(C)c(C)c1Cc1ccc2[nH]cc(C(C)C)c2n1 [Compound 1, 2-(4-((3-isopropyl-1H-pyrrolo[3,2-b]pyridin-5-yl)methyl)-2,3,5-trimethylphenoxy)acetic acid]
Emax [1]: < 50% | EC50 [1]: 250 to 1000 nM | EC50 (Huh-7 cells): 100 to 1000 nM | Emax (Huh-7 cells): > 75% | Emax [2]: < 50% | EC50 [2]: < 50 nM

Cc1cc(OCC(=O)O)cc(C)c1Cc1ccc2[nH]cc(C(C)C)c2n1 [Compound 2, 2-(4-((3-isopropyl-1H-pyrrolo[3,2-b]pyridin-5-yl)methyl)-3,5-dimethylphenoxy)acetic acid]
Emax [1]: < 50% | EC50 [1]: 50 to 250 nM | EC50 (Huh-7 cells): < 100 nM | Emax (Huh-7 cells): > 75% | Emax [2]: < 50% | EC50 [2]: < 50 nM

Cc1cc(NC(=O)c2noc(=O)[nH]2)cc(C)c1Cc1ccc2[nH]cc(C(C)C)c2n1 [Compound 3, N-(4-((3-isopropyl-1H-pyrrolo[3,2-b]pyridin-5-yl)methyl)-3,5-dimethylphenyl)-5-oxo-4,5-dihydro-1,2,4-oxadiazole-3-carboxamide]
Emax [1]: < 50% | EC50 [1]: < 50 nM | Emax [2]: < 50% | EC50 [2]: < 50 nM

Cc1cc(NC(=O)C(=O)O)cc(C)c1Cc1ccc2[nH]cc(C(C)C)c2n1 [Compound 4, 2-((4-((3-isopropyl-1H-pyrrolo[3,2-b]pyridin-5-yl)methyl)-3,5-dimethylphenyl)amino)-2-oxoacetic acid]
Emax [1]: < 50% | EC50 [1]: < 50 nM | Emax [2]: 50 to 75% | EC50 [2]: < 50 nM

CCOC(=O)C(=O)Nc1cc(C)c(Cc2ccc3[nH]cc(C(C)C)c3n2)c(C)c1 [Compound 5, ethyl 2-((4-((3-isopropyl-1H-pyrrolo[3,2-b]pyridin-5-yl)methyl)-3,5-dimethylphenyl)amino)-2-oxoacetate]
Emax [1]: < 50% | EC50 [1]: < 50 nM | Emax [2]: < 50% | EC50 [2]: < 50 nM

Cc1nc(OCC(=O)O)c(C)c(C)c1Cc1ccc2[nH]cc(C(C)C)c2n1 [Compound 6, [[5-([3-isopropyl-1H-pyrrolo[3,2-b]pyridin-5-yl]methyl)-3,4,6-trimethylpyridin-2-yl]oxy]acetic acid]
Emax [1]: < 50% | EC50 [1]: 1000 to 25000 nM | EC50 (Huh-7 cells): 100 to 1000 nM | Emax (Huh-7 cells): < 50% | Emax [2]: < 50% | EC50 [2]: 50 to 250 nM

Cc1cc(OC(C)C(=O)O)c(C)c(C)c1Cc1ccc2[nH]cc(C(C)C)c2n1 (stereo not drawn) [Compound 7, 2-(4-((3-isopropyl-1H-pyrrolo[3,2-b]pyridin-5-yl)methyl)-2,3,5-trimethylphenoxy)propanoic acid]
Emax [1]: < 50% | EC50 [1]: > 25000 nM | Emax [2]: < 50% | EC50 [2]: 1000 to 25000 nM

Cc1cc(OC(C)(C)C(=O)O)c(C)c(C)c1Cc1ccc2[nH]cc(C(C)C)c2n1 [Compound 8, 2-(4-((3-isopropyl-1H-pyrrolo[3,2-b]pyridin-5-yl)methyl)-2,3,5-trimethylphenoxy)-2-methylpropanoic acid]
Emax [1]: < 50% | EC50 [1]: > 25000 nM | Emax [2]: < 50% | EC50 [2]: < 50 nM

Cc1cc(OC(F)C(=O)O)c(C)c(C)c1Cc1ccc2[nH]cc(C(C)C)c2n1 (stereo not drawn) [Compound 9, 2-fluoro-2-(4-((3-isopropyl-1H-pyrrolo[3,2-b]pyridin-5-yl)methyl)-2,3,5-trimethylphenoxy)acetic acid]
Emax [1]: < 50% | EC50 [1]: > 25000 nM | Emax [2]: < 50% | EC50 [2]: < 50 nM

Cc1cc(OCc2nn[nH]n2)c(C)c(C)c1Cc1ccc2[nH]cc(C(C)C)c2n1 [Compound 10, 5-(4-((2H-tetrazol-5-yl)methoxy)-2,3,6-trimethylbenzyl)-3-isopropyl-1H-pyrrolo[3,2-b]pyridine]
Emax [1]: < 50% | EC50 [1]: > 25000 nM | Emax [2]: < 50% | EC50 [2]: < 50 nM

Cc1cc(OCc2noc(=O)[nH]2)c(C)c(C)c1Cc1ccc2[nH]cc(C(C)C)c2n1 [Compound 11, 3-((4-((3-isopropyl-1H-pyrrolo[3,2-b]pyridin-5-yl)methyl)-2,3,5-trimethylphenoxy)methyl)-1,2,4-oxadiazol-5(4H)-one]
Emax [1]: < 50% | EC50 [1]: > 25000 nM | EC50 (Huh-7 cells): 100 to 1000 nM | Emax (Huh-7 cells): < 50% | Emax [2]: < 50% | EC50 [2]: < 50 nM

N[C@@H](Cc1cc(I)c(Oc2ccc(O)c(I)c2)c(I)c1)C(=O)O [Reference(T3), triiodothyronine, reference compound]
EC50 (Huh-7 cells): < 100 nM | Emax (Huh-7 cells): > 75%
